# Article PMC3748009, “Novel Small-Molecule AMP-Activated Protein Kinase Allosteric Activator with Beneficial Effects in db/db Mice” (PLoS ONE, 2013)
# Legend:
# human AMPK α1(1–312) = molecular target: T1, human AMPK α1(1–312) (Homo sapiens, UniProt Q13131); test: SPA, constitutively active kinase domain; assay type: biochemical; settings: various concentrations
# T1 construct: the constitutively active kinase domain (KD) α1(1–312) in SPA assay; made in house
# Procedure: (§1) Before the SPA assay, 200 nmol/l recombinant AMPK protein (α1β1γ1, α2β1γ1, α1β2γ1, α2β2γ1, α1(1–394), α1(1–335), α1(1–312)) was constructed, expressed, purified and fully phosphorylated as described previously. The SPA reactions were performed in 96-well plates in a final volume of 50 µl containing 20 mmol/l Tris-HCl, pH 7.5, 5 mmol/l MgCl2, 1 mmol/l DTT, 2 µmol/l biotin-SAMS, 2 µmol/l ATP and 7.4×10^3 Bq/well [γ-^33P]ATP. The reactions were initiated by the addition of 50 nmol/l recombinant AMPK protein to the reaction solutions, followed by incubation at 30°C for 2 hr. The reactions were then terminated by the addition of 40 µl of stop solution containing 80 µg streptavidin-coated SPA beads per well, 50 mmol/l EDTA and 0.1% Triton X-100 in PBS, pH 7.5, followed by incubation for 1 hr. Finally, 160 µl of suspension solution containing 2.4 mol/l CsCl, 50 mmol/l EDTA and 0.1% Triton X-100 in PBS, pH 7.5, was added to the reaction solution to suspend the SPA beads completely. The SPA signals were measured in a Wallac Microbeta plate counter (PerkinElmer, Waltham, MA, USA) 30 min later.
# L6 myotubes [1] = test: AMPK and ACC phosphorylation (Western blot) in L6 myotubes; assay type: cell-based
# From the text: (§2) These assays were described previously, [25].
# L6 myotubes [2] = test: Adenine nucleotide measurement (ADP/ATP ratio) in L6 myotubes; assay type: cell-based; settings: various concentrations, 3 hr, vs DMSO
# From the text: as §2
# L6 myotubes [3] = test: Glucose uptake in L6 myotubes; assay type: cell-based; settings: 3 hr, concentration-dependent
# From the text: as §2
# L6 myotubes [4] = test: Fatty acid (palmitate) oxidation in L6 myotubes; assay type: cell-based; settings: 4 hr treatment
# Procedure: The assay was initiated by adding [9,10-^3H(N)]-palmitic acid (PerkinElmer, Waltham, MA, USA) to a final concentration of 250 µmol/l and 5.55×10^4 Bq per well in DMEM. After incubation with the compound for 4 hr in differentiated L6 myotubes, sample from each well was added to charcoal slurry for centrifugation and then the radioactivity was measured.
# rat primary hepatocytes [5] = test: AMPK and ACC phosphorylation in rat primary hepatocytes; assay type: cell-based; settings: 3 hr
# From the text: as §2
# rat primary hepatocytes [6] = test: ADP/ATP ratio in rat primary hepatocytes; assay type: cell-based; settings: 3 hr
# From the text: as §2
# rat primary hepatocytes [7] = test: Gene expression (real-time PCR) in rat primary hepatocytes; assay type: cell-based
# From the text: This assay was described previously. For details on primer sequences, see Legend for Table S1.
# C57BKS db/db mice = test: 5-week chronic study in db/db mice; assay type: in vivo, mouse
# From the text: db/db (Jackson Laboratory, BarHarbor, ME, USA) mice were bred at the Shanghai Institute of Materia Medica (Chinese Academy of Sciences, Shanghai, People's Republic of China).The animals were maintained under a 12 hr light-dark cycle with free access to water and food. Animal experiments were approved by the Animal Care and Use Committee, Shanghai Institute of Materia Medica. At 8 weeks of age, male db/db mice were randomly assigned to the various treatment groups by body weight and glucose levels (n = 6-8). The treatment groups for the 5-week chronic study were as follows: vehicle (0.5% methylcellulose), ZLN024 (15 mg/kg) and metformin (250 mg/kg). The treatments were orally administered once daily. The body weights and food intake were measured daily. After 5 weeks of treatment, the mice were killed after a final dose, and the tissues were collected for further analysis. This assay was described previously. For details on primer sequences, see Legend for Table S1. These assays were described previously, [25].
# AMPK α1β1γ1 = AMPK α1β1γ1 (Homo sapiens, UniProt P54619+Q13131+Q9Y478); test: Scintillation proximity assay (SPA), AMPK activation; assay type: biochemical; set-up: made in house
# AMPK α1β1γ1, sequence (Q13131 10-559 limits assumed): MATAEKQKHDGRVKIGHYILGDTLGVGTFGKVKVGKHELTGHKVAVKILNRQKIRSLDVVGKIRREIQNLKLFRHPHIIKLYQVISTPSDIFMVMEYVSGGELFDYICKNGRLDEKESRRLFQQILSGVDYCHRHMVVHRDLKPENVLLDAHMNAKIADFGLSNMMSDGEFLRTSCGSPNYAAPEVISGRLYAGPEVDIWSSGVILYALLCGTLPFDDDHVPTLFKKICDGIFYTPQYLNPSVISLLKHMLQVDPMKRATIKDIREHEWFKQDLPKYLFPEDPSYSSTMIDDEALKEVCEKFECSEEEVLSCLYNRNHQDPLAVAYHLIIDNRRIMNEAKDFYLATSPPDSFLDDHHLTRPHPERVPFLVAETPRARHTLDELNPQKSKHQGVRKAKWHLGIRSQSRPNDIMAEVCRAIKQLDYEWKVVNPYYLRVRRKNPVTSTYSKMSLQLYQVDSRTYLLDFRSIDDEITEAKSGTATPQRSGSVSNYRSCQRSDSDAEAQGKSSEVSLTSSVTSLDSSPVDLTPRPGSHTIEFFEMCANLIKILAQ
# AMPK α1β1γ1, sequence (Q9Y478 whole entry partner): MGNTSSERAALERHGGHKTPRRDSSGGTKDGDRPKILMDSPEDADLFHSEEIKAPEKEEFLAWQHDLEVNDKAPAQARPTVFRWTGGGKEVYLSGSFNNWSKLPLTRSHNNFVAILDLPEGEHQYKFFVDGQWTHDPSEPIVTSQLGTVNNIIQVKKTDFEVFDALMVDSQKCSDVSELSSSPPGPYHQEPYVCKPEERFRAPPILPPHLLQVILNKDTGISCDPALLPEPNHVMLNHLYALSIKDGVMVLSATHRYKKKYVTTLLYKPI
# AMPK α1β1γ1, sequence (P54619 whole entry partner): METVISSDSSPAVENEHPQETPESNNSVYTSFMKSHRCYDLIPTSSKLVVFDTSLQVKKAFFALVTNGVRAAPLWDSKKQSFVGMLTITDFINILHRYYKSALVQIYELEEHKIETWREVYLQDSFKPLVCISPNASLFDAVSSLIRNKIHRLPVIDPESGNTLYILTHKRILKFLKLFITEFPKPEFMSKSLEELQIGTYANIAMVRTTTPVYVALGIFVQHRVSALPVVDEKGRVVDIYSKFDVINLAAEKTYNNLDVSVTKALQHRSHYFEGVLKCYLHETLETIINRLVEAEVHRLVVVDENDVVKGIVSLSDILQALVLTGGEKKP
# Procedure: as §1
# recombinant AMPK α1β1γ1 = recombinant AMPK α1β1γ1 (Homo sapiens, UniProt Q13131); test: as above; assay type: biochemical; set-up: made in house
# recombinant AMPK α1β1γ1, sequence (Q13131 10-559 limits assumed): as the sequence (Q13131 10-559 limits assumed) above
# recombinant AMPK α1β1γ1, sequence (Q9Y478 whole entry partner): as the sequence (Q9Y478 whole entry partner) above
# recombinant AMPK α1β1γ1, sequence (P54619 whole entry partner): as the sequence (P54619 whole entry partner) above
# Procedure: as §1
# AMPK α1(1–335) = AMPK α1(1–335) (Homo sapiens, UniProt Q13131); test: SPA, inactive α1 subunit truncation; assay type: biochemical; set-up: α1(1–394), α1(1–335), α1(1–312); made in house
# AMPK α1(1–335), sequence (Q13131 10-344): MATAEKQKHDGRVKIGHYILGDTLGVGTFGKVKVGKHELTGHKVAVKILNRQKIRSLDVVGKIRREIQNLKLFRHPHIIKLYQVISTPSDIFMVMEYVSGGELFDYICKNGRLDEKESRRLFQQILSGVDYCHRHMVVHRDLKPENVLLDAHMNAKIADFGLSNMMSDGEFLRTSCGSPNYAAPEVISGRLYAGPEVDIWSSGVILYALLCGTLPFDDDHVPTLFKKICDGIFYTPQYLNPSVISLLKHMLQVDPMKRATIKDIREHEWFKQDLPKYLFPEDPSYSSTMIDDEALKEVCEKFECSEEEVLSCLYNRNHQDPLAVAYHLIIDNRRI
# Procedure: as §1
# AMPK α1(1–394) = AMPK α1(1–394) (Homo sapiens, UniProt Q13131); test: SPA, inactive α1 subunit truncation; assay type: biochemical; set-up: α1(1–394), α1(1–335), α1(1–312); made in house
# AMPK α1(1–394), sequence (Q13131 10-403): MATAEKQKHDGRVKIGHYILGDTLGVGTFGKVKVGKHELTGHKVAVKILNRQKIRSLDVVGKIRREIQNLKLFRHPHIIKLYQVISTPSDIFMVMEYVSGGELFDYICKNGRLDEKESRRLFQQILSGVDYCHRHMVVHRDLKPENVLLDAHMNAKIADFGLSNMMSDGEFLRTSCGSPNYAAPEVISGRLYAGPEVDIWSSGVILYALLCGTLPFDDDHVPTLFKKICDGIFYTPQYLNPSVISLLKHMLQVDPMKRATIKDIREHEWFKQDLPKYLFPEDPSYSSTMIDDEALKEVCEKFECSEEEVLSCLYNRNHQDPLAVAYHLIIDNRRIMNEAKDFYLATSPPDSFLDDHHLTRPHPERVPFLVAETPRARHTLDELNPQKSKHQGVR
# Procedure: as §1
# [8] = primary hepatocytes, 21 hr incubation
# [9] = ZLN024 15 mg/kg/day by gavage, 5 weeks
# T1 sequence (Q13131 10-321): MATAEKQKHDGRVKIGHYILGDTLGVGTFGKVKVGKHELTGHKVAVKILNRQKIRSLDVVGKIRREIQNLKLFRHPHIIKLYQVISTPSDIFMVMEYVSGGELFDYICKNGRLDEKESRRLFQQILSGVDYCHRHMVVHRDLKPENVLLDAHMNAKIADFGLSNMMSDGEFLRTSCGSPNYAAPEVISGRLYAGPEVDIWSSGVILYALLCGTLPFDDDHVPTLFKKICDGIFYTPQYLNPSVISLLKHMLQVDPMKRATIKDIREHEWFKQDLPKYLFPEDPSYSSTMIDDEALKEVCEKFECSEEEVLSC
compound,measurement,setting,value
Cc1ccc(OCCSc2ncccn2)c(Br)c1 [ZLN024],effect on activity of constitutively active kinase domain α1(1–312),human AMPK α1(1–312),did not induce significant changes
same,phosphorylation of AMPK and ACC,"L6 myotubes [1]; 3 hr incubation, concentration-dependent",stimulated
same,time to maximal effect on AMPK and ACC phosphorylation,L6 myotubes [1]; ZLN024 20 µmol/l,≤ 30 min
same,time to start of increase of AMPK and ACC phosphorylation,L6 myotubes [1]; ZLN024 20 µmol/l,≤ 15 min
same,ADP/ATP ratio,L6 myotubes [2],not affected
same,glucose uptake,L6 myotubes [3],stimulated
same,stimulation of palmitate oxidation,L6 myotubes [4],40%
same,phosphorylation of ACC,rat primary hepatocytes [5],obviously increased
same,phosphorylation of AMPK,rat primary hepatocytes [5],slightly activated
same,ADP/ATP ratio,rat primary hepatocytes [6],not affected
same,mRNA level of G6Pase,rat primary hepatocytes [7]; [8],decreased significantly
same,mRNA level of PEPCK,rat primary hepatocytes [7]; [8],decreased significantly
same,gene expression of fatty acid synthase (FAS),"rat primary hepatocytes [7]; rat primary hepatocytes, 21 hr",significantly decreased
same,ACC phosphorylation in abdominal muscle and liver tissue,"C57BKS db/db mice; 15 mg/kg/day, 5 weeks",increased
same,AMPK phosphorylation in abdominal muscle and liver tissue,"C57BKS db/db mice; 15 mg/kg/day, 5 weeks",not affected
same,body weight compared with the vehicle group,C57BKS db/db mice; [9],no significant alteration
same,food intake compared with the vehicle group,C57BKS db/db mice; [9],no significant alteration
same,reduction of fasting blood glucose,"C57BKS db/db mice; ZLN024 15 mg/kg/day, 4 weeks, fasted 6 hr, not significant with ANOVA",15%
same,"abdominal muscle expression of fatty acid oxidation genes CPT-1, MCAD and LCAD","C57BKS db/db mice; ZLN024 15 mg/kg/day, 5 weeks",significantly upregulated
same,"abdominal muscle expression of mitochondrial biogenesis genes PGC-1α, cyto-c and ATPase","C57BKS db/db mice; ZLN024 15 mg/kg/day, 5 weeks",upregulated
same,decrease of liver total cholesterol levels,"C57BKS db/db mice; ZLN024 15 mg/kg/day, 5 weeks",20%
same,liver expression of PEPCK,"C57BKS db/db mice; ZLN024 15 mg/kg/day, 5 weeks",remained unchanged
same,"liver expression of anabolic genes FAS, mtGPAT and G6Pase","C57BKS db/db mice; ZLN024 15 mg/kg/day, 5 weeks",significantly reduced
same,"liver expression of catabolic genes CPT1, LCAD, PDK4 and AOX","C57BKS db/db mice; ZLN024 15 mg/kg/day, 5 weeks",mildly increased
same,liver/body weight reduction vs vehicle,"C57BKS db/db mice; ZLN024 15 mg/kg/day, 5 weeks",9%
same,reduction of liver triacylglycerol levels,"C57BKS db/db mice; ZLN024 15 mg/kg/day, 5 weeks",approximately 45%
same,liver/body weight (wt/wt),"C57BKS db/db mice; ZLN024 15 mg/kg/day, 5 weeks (vehicle 5.3%)",4.8%
same,reduction in glucose tolerance AUC,"C57BKS db/db mice; ZLN024 15 mg/kg/day, after 4 weeks, i.p. glucose load 1.5 g/kg",approximately 15%
same,EC50,AMPK α1β1γ1,420 nM
same,activation of α1β1γ1 activity,recombinant AMPK α1β1γ1,1.5 fold
same,maximal activation of α1(1–335),AMPK α1(1–335),2.8 fold
same,EC50,"AMPK α1(1–335); read-out: EC50, activation of α1(1–335)",2230 nM
same,maximal activation of α1(1–394),AMPK α1(1–394),2.3 fold
same,EC50,"AMPK α1(1–394); read-out: EC50, activation of α1(1–394)",920 nM
